Reference: patent publication US20120034320A1, “Skin Penetration Composition” (DOMINION RESOURCES, UNLIMITED, LLC, priority 2010, published 2012)
Counter-ions that a name gives are not always drawn.

Legend:
[1] = test system: sciatica and neuropathy (diabetic neuropathy); test: Physician observation, Patient B: sciatica and diabetic neuropathy; assay type: in vivo, human; details: lotion applied to affected areas
Source text: The patient continues to use Relievz™ lotion daily.

fibromyalgia = test: Physician observation, Patient A: fibromyalgia; assay type: in vivo, human; details: Relievz lotion twice daily to affected areas, pregabalin 400 mg daily, other products as previously used

Row | SMILES | pain and ambulation [1] | relief of fibromyalgia symptoms (fibromyalgia)
1 | NCC1(CC(=O)O)CCCCC1 [gabapentin] | continued pain | 
2 | CC(C)C[C@H](CN)CC(=O)O [pregabapentin] | continued pain | 
3 | CNCC[C@H](Oc1cccc2ccccc12)c1cccs1 [Cymbalta®, duloxetine HCl] |  | no relief
4 | CC(C)C[C@H](CN)CC(=O)O [pregabalin] |  | no relief
